Molecular target: T1, PPARα (Homo sapiens, UniProt Q07869)
T1 construct: expressed in transfected cells; host or cells: HepG2
T1 sequence (Q07869 239-466 limits assumed): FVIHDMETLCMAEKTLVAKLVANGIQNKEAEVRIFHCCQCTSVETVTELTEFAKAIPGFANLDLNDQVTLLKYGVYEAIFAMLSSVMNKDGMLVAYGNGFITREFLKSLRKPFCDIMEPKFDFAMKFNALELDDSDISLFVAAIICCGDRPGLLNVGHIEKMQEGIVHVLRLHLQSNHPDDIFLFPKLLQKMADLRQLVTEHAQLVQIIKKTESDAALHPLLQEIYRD
Assay: Gal4/PPARα transactivation system in HepG2 cells (luciferase reporter)
Format: cell-based
Conditions: HepG2 cells transfected with Gal4/PPARα plasmids, 24 h
Method: PPAR activation was tested in vitro in RK13 fibroblast cell lines or in a hepatocyte line HepG2 by measuring the transcriptional activity of chimeras composed of the DNA binding domain of the yeast gal4 transcription factor and the ligand binding domain of the different PPARs. The example below is given for HepG2 cells.
HepG2 cells were from ECACC (Porton Down, UK) and were grown in DMEM medium supplemented with 10% (VN) fetal calf serum, 100 U/ml penicillin (Gibco, Paisley, UK) and 2 mM L-glutamine (Gibco, Paisley, UK). The culture medium was changed every two days. Cells were kept at 37° C. in a humidified 95% air/5% CO2 atmosphere.
The plasmids pG5TkpGL3, PRL-CMV, pGal4-hPPARα, pGal4-hPPARγ and pGal4-f have been described by Raspe et al. (Raspe, Madsen et al. 1999). The pGal4-mPPARα and pGal4-hPPARβ constructs were obtained by cloning PCR-amplified DNA fragments corresponding to the DEF domains of the mouse PPARα and […] nuclear receptors, respectively, into the pGal4-f vector.
HepG2 cells were seeded in 24-well culture dishes at 5×10^4 cells/well and transfected for 2 hours with the reporter plasmid pG5TkpGL3 (50 ng/well), the expression vectors pGal4-f, pGal4-mPPARα, pGal4-hPPARα, pGal4-hPPARγ, or pGal4-hPPARβ (100 ng/well) and the transfection efficiency control vector pRL-CMV (1 ng/well) according to the previously described protocol (Raspe, Madsen et al. 1999), then incubated for 36 hours with the test compounds. At the end of the experiment, the cells were lysed (Gibco, Paisley, UK) and luciferase activity was determined with a Dual-Luciferase™ Reporter Assay System kit (Promega, Madison, Wis., USA) according to the supplier's instructions. The protein content of the cell extracts was then measured with the Bio-Rad Protein Assay kit (Bio-Rad, Munich, Germany) as directed by the supplier. […] FIG. 3 gives an example of the results obtained with the inventive compounds.
FIG. 3: HepG2 cells transfected with Gal4/PPARα plasmids were incubated with different concentrations (5, 15, 50 and 100 μM) of the inventive comopunds (Ex 2a, Ex 4a, Ex 4p, Ex 5a, Ex 7 and Ex 11) for 24 h and with different concentrations of the vehicle (PC) noted 1, 2, 3, 4 as controls for the 5, 15, 50 and 100 μM concentrations of the inventive compounds (according to the 4:1 (m/m) ratio described in example 2 (Method of preparation of the inventive compounds for in vitro studies)). The results are expressed as the induction factor (luminescent signal of treated cells divided by luminescent signal of untreated cells) after the different treatments. […] The induction factors for inventive compound Ex 4p were 35 at 100 μM, 44 at 50 μM, 36 at 15 μM and 24 at 5 μM. The induction factors for compound Ex 5a were 32 at 100 μM, 34 at 50 μM, 15 at 15 μM and 4 at 5 μM. Finally, inventive compound Ex 7 induced a 19-fold induction at 100 μM, 19 at 50 μM, 7 at 15 μM and 1.5 at 5 μM. In contrast, when the cells were incubated with the vehicle (PC liposome), no significant induction was observed.

## CCCCCCCCCCCCCCSCC(=O)OCC(COC(=O)CSCCCCCCCCCCCCCC)OC(=O)CSCCCCCCCCCCCCCC [Ex 4a, 1,2,3-tritetradecylthioacetylglycerol]
5 μM
  induction factor (luminescent signal of treated cells divided by luminescent signal of untreated cells): 6 fold
15 μM
  induction factor (luminescent signal of treated cells divided by luminescent signal of untreated cells): 15 fold
50 μM
  induction factor (luminescent signal of treated cells divided by luminescent signal of untreated cells): 23 fold
100 μM
  induction factor (luminescent signal of treated cells divided by luminescent signal of untreated cells): 33 fold

Reference: patent US20060154984A1, “Therapeutic use of acyl glycerols and the nitrogen- and sulphur- containing analogues thereof” (priority 2003, published 2006)
